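Five compound concentrations were applied to cells in 96-well plates for 48 hours; endpoints were derived by simple linear interpolation of the resulting dose-response curve. GI50 is the concentration that inhibits growth by half.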 Activity calls are given as the source filed them. Rule as the data show it: active = GI50 up to about 1.1 µM and inactive = higher.
Experiments:
Assay in all cases: NCI tumour cell line growth inhibition, 48 h
NCI-H522 = test system: NCI-H522
IGROV-1 = test system: IGROV-1
SR = test system: SR
M14 = test system: M14
SNB-19 = test system: SNB-19
MOLT-4 = test system: MOLT-4
OVCAR-3 = test system: OVCAR-3
OVCAR-5 = test system: OVCAR-5
SK-MEL-2 = test system: SK-MEL-2
HL-60 = test system: HL-60
ACHN = test system: ACHN
NCI-H460 = test system: NCI-H460
SW-620 = test system: SW-620
RXF 393 = test system: RXF 393
SK-OV-3 = test system: SK-OV-3
HCT-15 = test system: HCT-15
COLO 205 = test system: COLO 205

| SMILES | GI50 (NCI-H522) | GI50 (IGROV-1) | GI50 (SR) | GI50 (M14) | GI50 (SNB-19) | GI50 (MOLT-4) | GI50 (OVCAR-3) | GI50 (OVCAR-5) | GI50 (SK-MEL-2) | GI50 (HL-60) | GI50 (ACHN) | GI50 (NCI-H460) | GI50 (SW-620) | GI50 (RXF 393) | GI50 (SK-OV-3) | GI50 (HCT-15) | GI50 (COLO 205) |
| --- | --- | --- | --- | --- | --- | --- | --- | --- | --- | --- | --- | --- | --- | --- | --- | --- | --- |
| N#Cc1cc([N+](=O)[O-])ccc1NC(=O)C(F)(F)F | > 58.5 µM (inactive) | > 100 µM (inactive) | > 100 µM (inactive) | > 100 µM (inactive) | > 100 µM (inactive) | > 100 µM (inactive) | > 100 µM (inactive) | > 100 µM (inactive) | > 100 µM (inactive) | > 57.1 µM (inactive) | > 100 µM (inactive) | > 42.3 µM (inactive) | > 40.9 µM (inactive) | > 56.6 µM (inactive) | > 100 µM (inactive) | > 41.4 µM | 20.7 µM (inactive) |
| CCN(CC)c1ccc(/N=N/c2ccc(-c3nc4cccn(C)c-4n3)cc2)cc1 | 7.11 µM (inactive) | 10.7 µM (inactive) | 2.51 µM (inactive) | 9.33 µM (inactive) | 15.6 µM (inactive) | 2.23 µM (inactive) | 10.5 µM (inactive) | 3.56 µM (inactive) | 17.5 µM (inactive) | 1.75 µM (inactive) | – | 5.07 µM (inactive) | 7.36 µM (inactive) | 3.21 µM (inactive) | 17.3 µM (inactive) | 3.75 µM | 14.3 µM (inactive) |
| Cc1ccc(SC(C)/C=C/NNC2=NN=C(c3ccccc3)C(c3ccccc3)N2)cc1 (stereo not drawn) | 23.1 µM (inactive) | 31.1 µM (inactive) | 11.5 µM (inactive) | 38 µM (inactive) | – | 13.4 µM (inactive) | 25.5 µM (inactive) | 21.5 µM (inactive) | 23.4 µM (inactive) | 13 µM (inactive) | 29.6 µM (inactive) | 33.1 µM (inactive) | 46.5 µM (inactive) | – | 32.2 µM (inactive) | 26.9 µM | 36.1 µM (inactive) |
| COC(=O)/C(=N/NC(C)(C)C)C(C(=O)C=C(C)C)C(=O)C(=O)Nc1ccc(Cl)cc1C (stereo not drawn) | > 100 µM (inactive) | > 100 µM (inactive) | > 100 µM (inactive) | > 100 µM (inactive) | > 100 µM (inactive) | > 100 µM (inactive) | > 100 µM (inactive) | > 100 µM (inactive) | > 100 µM (inactive) | > 100 µM (inactive) | > 100 µM (inactive) | > 100 µM (inactive) | > 100 µM (inactive) | – | > 100 µM (inactive) | > 100 µM | > 100 µM (inactive) |
| COC(=O)C(=O)C(C(C)=O)C(=O)NCc1ccc(OC)c(OC)c1 (stereo not drawn) | > 100 µM (inactive) | > 100 µM (inactive) | > 100 µM (inactive) | > 100 µM (inactive) | > 100 µM (inactive) | > 100 µM (inactive) | > 100 µM (inactive) | > 100 µM (inactive) | > 100 µM (inactive) | > 100 µM (inactive) | > 100 µM (inactive) | > 100 µM (inactive) | 40.5 µM (inactive) | 78.5 µM (inactive) | > 100 µM (inactive) | > 100 µM | > 100 µM (inactive) |
| CC1(C)OC2C(=O)OC(COCc3ccccc3)C2O1 (stereo not drawn) | – | > 100 µM (inactive) | 78.9 µM (inactive) | > 100 µM (inactive) | – | > 100 µM (inactive) | > 100 µM (inactive) | > 100 µM (inactive) | > 100 µM (inactive) | > 100 µM (inactive) | > 100 µM (inactive) | > 100 µM (inactive) | > 100 µM (inactive) | > 100 µM (inactive) | – | > 100 µM | > 100 µM (inactive) |
| CN/N=C(\C(=O)Nc1ccc(C(F)(F)F)cc1[N+](=O)[O-])C(c1cnc2ccc([N+](=O)[O-])cc2n1)[N+](=O)[O-] (stereo not drawn) | 6.84 µM (inactive) | > 100 µM (inactive) | 27.7 µM (inactive) | > 100 µM (inactive) | 96.6 µM (inactive) | 14.8 µM (inactive) | 28.6 µM (inactive) | 22.9 µM (inactive) | > 100 µM (inactive) | – | 21.8 µM (inactive) | 33.3 µM (inactive) | 46 µM (inactive) | 30.1 µM (inactive) | > 100 µM (inactive) | 37.1 µM | 28.6 µM (inactive) |
| COc1ccc(C2Oc3c(c(O)cc4c3[C@H](c3ccc(O)cc3O)[C@H](O)C(c3ccc(O)c(O)c3)O4)C[C@@H]2O)cc1O (stereo partly drawn) | > 100 µM (inactive) | > 100 µM (inactive) | > 100 µM (inactive) | > 100 µM (inactive) | > 100 µM (inactive) | > 100 µM (inactive) | > 100 µM (inactive) | > 100 µM (inactive) | > 100 µM (inactive) | > 100 µM (inactive) | > 100 µM (inactive) | > 100 µM (inactive) | > 100 µM (inactive) | > 100 µM (inactive) | > 100 µM (inactive) | > 100 µM | > 100 µM (inactive) |
